The test system of experiment [1] is T. brucei brucei strain BF427. Description: T. brucei growth inhibition assay. The format is cell-based, Trypanosoma brucei brucei. The note with it: for activity on T. brucei cells (in words): T. brucei EC50 assay; for fold enhancement of potency with respect to compound 1: vs 1, T. brucei EC50; for fold reduction of potency compared to compound 2: vs 2, T. brucei EC50; for EC50: Trypanosoma brucei, 48 h, read-out: EC50, concentration required to inhibit growth by 50% of T. brucei brucei, strain BF427, 48H, AlamarBlue. A general note: Alamar Blue is a resazurin reagent that responds to reducing activity.

For experiment [2], the system named is T. brucei brucei (strain TREU667). Description: Chronic. In kind it is in vivo, mouse. The conditions noted are these: for number of mice free of parasitemia/number of mice in the group: same dosing; for relapse with parasites in the blood / suppression of parasitemia during treatment phase: TREU667, 50 mg/kg twice a day oral day 21 to 34.
Setting [3] is: day 35 post-infection, day 1 post-treatment.
Setting [4] is: day 36 post-infection, day 2 post-treatment.
Setting [5] is: day 37 post-infection, day 3 post-treatment.
Setting [6] is: day 38 post-infection, day 4 post-treatment.
Where [7] appears, read: day 39 post-infection, day 5 post-treatment.
[8] abbreviates: day 40 post-infection, day 6 post-treatment.

Structures can show the parent of a compound that is named as a salt.

On to `Cl.NCCN(C(=O)c1ccccc1C(F)(F)F)c1ccc(OCc2ccc(Cl)cc2)cc1` [Compound 66, N-(2-Aminoethyl)-N-{4-[(4-chlorophenyl)methoxy]phenyl}-2-(trifluoromethyl)benzamide hydrochloride], for which the “activity on T. brucei cells (in words)” value in experiment [1] is recorded as “single digit nanomolar EC50 values”.

As for `Cl.NCCN(C(=O)c1ccc(Cl)cc1Cl)c1ccc(Cl)cc1` [Compound 2, N-(2-Aminoethyl)-2,4-dichloro-N-(4-chlorophenyl)benzamide], the “fold enhancement of potency with respect to compound 1” value (“fold enhancement of potency” below) in experiment [1] is 4 fold.

As to `Cl.NCCN(C(=O)c1ccc(Cl)cc1Cl)c1cccc(Cl)c1` [Compound 11, N-(2-Aminoethyl)-2,4-dichloro-N-(3-chlorophenyl)benzamide hydrochloride], in experiment [1], the “fold reduction of potency compared to compound 2” value is on record as 10 fold.

Turning to `Cl.NCCN(C(=O)c1ccc(Cl)cc1Cl)c1ccc([N+](=O)[O-])cc1` [Compound 9, N-(2-Aminoethyl)-2,4-dichloro-N-(4-nitrophenyl)benzamide hydrochloride], the “activity on T. brucei cells (in words)” value in experiment [1] is reported as “eliminated activity”.

On to `Cl.NCCN(C(=O)c1ccc(Cl)cc1Cl)c1ccc(Oc2ccc(Cl)cc2)cc1` [Compound 16, N-(2-Aminoethyl)-2,4-dichloro-N-[4-(4-chlorophenoxy)phenyl] benzamide hydrochloride], for which the “fold enhancement of potency” value in experiment [1] worked out at 7 fold.

On to `N=C(N)c1ccc(/N=N/Nc2ccc(C(=N)N)cc2)cc1` [Diminazene, diminazene aceturate, reference compound], for which the “number of mice free of parasitemia/number of mice in the group” value in experiment [2] (setting [3]), in experiment [2] (setting [4]), in experiment [2] (setting [5]), in experiment [2] (setting [6]), in experiment [2] (setting [7]) and in experiment [2] (setting [8]) was 3/3 each time. The “number of mice free of parasitemia/number of mice in the group” value in experiment [2] (day 41–42 post-infection, day 7–8 post-treatment) is listed as 3/3; in experiment [2] (day 43–45 post-infection, day 9–11 post-treatment) it was 3/3; in experiment [2] (day 46–49 post-infection, day 12–15 post-treatment), 1/3; in experiment [2] (day 50–51 post-infection, day 16–17 post-treatment), 0/3.

Regarding `Cl.NCCN(C(=O)c1ccc(Cl)cc1Cl)c1ccc(N)cc1` [Compound 10, N-(2-Aminoethyl)-N-(4-aminophenyl)-2,4-dichlorobenzamide], in experiment [1], the “activity on T. brucei cells (in words)” value is listed as “eliminated activity”.

For the compound `Cl.NCCN(C(=O)c1ccc(Cl)cc1Cl)c1ccc(Br)cc1` [Compound 3, N-(2-Aminoethyl)-N-(4-bromophenyl)-2,4-dichlorobenzamide hydrochloride], the “fold enhancement of potency” value in experiment [1] was determined as 4 fold.

Consider `Cl.NCCN(C(=O)c1ccc(F)cc1F)c1ccc(Cl)cc1` [Compound 40, N-(2-Aminoethyl)-N-(4-chlorophenyl)-2,4-difluorobenzamide hydrochloride], for which the “fold more active than 2-floro (30) or 4-fluoro (28) derivatives” value in experiment [1] (vs 30 or 28) is listed as “at least 3 fold”.

Consider `COc1ccc(N(CCN)C(=O)c2ccc(Cl)cc2Cl)cc1.Cl` [Compound 8, N-(2-Aminoethyl)-2,4-dichloro-N-(4-methoxyphenyl)benzamide hydrochloride], for which the “activity on T. brucei cells (in words)” value in experiment [1] is “eliminated activity”.

As to `Cl.NCCN(C(=O)c1ccccc1Cl)c1ccc(Cl)cc1` [Compound 23, N-(2-Aminoethyl)-2-chloro-N-(4-chlorophenyl)benzamide hydrochloride], in experiment [1] (vs 21), the “fold more active than 4-chlorobenzoyl derivative 21” value is reported as approximately 8 fold. Also, the “fold more active than 3-chloro (22)” value in experiment [1] (vs 22) stood at 3 fold.

Take `CCN(C(=O)c1ccc(Cl)cc1Cl)c1ccc(F)cc1` [Compound 45, 2,4-Dichloro-N-ethyl-N-(4-fluorophenyl)benzamide]: in experiment [1], the “activity on T. brucei cells (in words)” value is “eliminated anti-T. brucei activity” and the EC50 was more than 10 µM.

With `CC(=O)NCCN(C(=O)c1ccc(Cl)cc1Cl)c1ccc(Cl)cc1` [Compound 46, N-{2-[N-(4-Chlorophenyl)-1-(2,4-dichlorophenyl)formamido]ethyl}acetamide], in experiment [1], the “activity on T. brucei cells (in words)” value is listed as “eliminated anti-T. brucei activity”.

On to `Cl.NCCN(C(=O)c1c(F)c(F)c(F)c(F)c1F)c1ccc(Cl)cc1` [Compound 41, N-(2-Aminoethyl)-N-(4-chlorophenyl)-2,3,4,5,6-pentafluorobenzamide hydrochloride], for which the “fold improvement in activity compared to 20” value in experiment [1] (vs 20) was determined as 26 fold.

Regarding `Cc1ccccc1C(=O)N(CCN)c1ccc(Cl)cc1.Cl` [Compound 24, N-(2-Aminoethyl)-N-(4-chlorophenyl)-2-methylbenzamide hydrochloride], the “fold more active than 4-methyl derivative 25” value in experiment [1] (vs 25) was 14 fold.

With `O=C(c1ccc(Cl)cc1Cl)N(CCO)c1ccc(Cl)cc1` [Compound 49, 2,4-Dichloro-N-(4-chlorophenyl)-N-(2-hydroxyethyl)benzamide], the “activity on T. brucei cells (in words)” value in experiment [1] was “inactive”.

For `Cl.NCCCN(C(=O)c1ccc(Cl)cc1Cl)c1ccc(Cl)cc1` [Compound 50, N-(3-Aminopropyl)-2,4-dichloro-N-(4-chlorophenyl)benzamide], in experiment [1], the “fold reduction of potency compared to compound 2” value was 10 fold.

As to `Cl.NCCN(C(=O)c1cccnc1C(F)(F)F)c1ccc(OCc2ccc(Cl)cc2)cc1` [Compound 68, N-(2-Aminoethyl)-N-{4-[(4-chlorophenyl)methoxy]phenyl}-2-(trifluoromethyl)pyridine-3-carboxamide hydrochloride], the “fold more active than 2-chloronicotinoyl (67)” value in experiment [1] (vs 67) is 10 fold.

As to `NCCN(C(=O)c1ccccc1C(F)(F)F)c1ccc(Cl)cc1` [Compound 42, N-(2-aminoethyl)-N-(4-chlorophenyl)-2-(trifluoromethyl) benzamide hydrochloride], the EC50 in experiment [1] stood at 0.18 µM.

For `N#CCN(C(=O)c1ccc(Cl)cc1Cl)c1ccc(Cl)cc1` [Compound 60, 2,4-Dichloro-N-(4-chlorophenyl)-N-(cyanomethyl)benzamide], the “activity on T. brucei cells (in words)” value in experiment [1] was “inactive”.

Regarding `CC(C)c1ccc(COc2ccc(N(CCN)C(=O)c3cccnc3Cl)cc2)cc1.Cl` [Compound 72, N-(2-Aminoethyl)-2-chloro-N-(4-{[4-(propan-2-yl)phenyl]methoxy}phenyl)pyridine-3-carboxamide hydrochloride], the “relapse with parasites in the blood” value in experiment [2] was “all mice relapsed”. Moreover, in experiment [2], the “suppression of parasitemia during treatment phase” value is “complete suppression”. Also, the “number of mice free of parasitemia/number of mice in the group” value is listed as 5/5 in experiment [2] (setting [3]), 5/5 in experiment [2] (setting [4]), 4/5 in experiment [2] (setting [5]) and 2/5 in experiment [2] (setting [7]).

In the case of `Cc1cc(C)cc(COc2ccc(N(CCN)C(=O)c3ccc(Cl)cc3Cl)cc2)c1.Cl` [Compound 76, N-(2-Aminoethyl)-2,4-dichloro-N-{4-[(3,5-dimethylphenyl)methoxy]phenyl}benzamide hydrochloride], the “relapse with parasites in the blood” value in experiment [2] is listed as “all mice relapsed”. The “suppression of parasitemia during treatment phase” value in experiment [2] is given as “partial suppression”. The “number of mice free of parasitemia/number of mice in the group” value in experiment [2] (setting [3]) was 3/4; in experiment [2] (setting [4]), 3/4; in experiment [2] (setting [5]) it was 3/4; in experiment [2] (setting [6]), 3/4; in experiment [2] (setting [7]), 2/4; in experiment [2] (setting [8]) it was 1/4.

With `CC1(C)OB(O)c2cc(NC(=O)c3ccc(F)cc3C(F)(F)F)ccc21` [SCYX-7158, reference compound], the “cure in late-stage model (in words)” value in experiment [2] (50 mg/kg PO twice per day) is “cured all mice”.
